Inhibition data for 15 compounds are collected here from patent US20230072683A1, “PYRIDO-PYRIMIDIN DERIVATIVES AND PHARMACEUTICAL COMPOSITION, FOR USE IN PREVENTING OR TREATING PI3 KINASE RELATED DISEASES, COMPRISING SAME AS ACTIVE INGREDIENT” (BORYUNG PHARMACEUTICAL CO., LTD, priority 2019, published 2023).

The target of experiment [1] is PI3K-δ (PI3K(p1108/p857) (h)) (Homo sapiens, UniProt O00329). Description: Evaluation of inhibitory activity against PI3K-δ (HTRF kinase assay). It is filed as biochemical. The settings on record: for inhibition at 0.01 µM: compound concentration 0.01 μM, read-out: EXP_VALUE(% Inhibition) PI3K-δ 0.01 μM; for inhibition at 0.1 µM: compound concentration 0.1 μM, read-out: EXP_VALUE(% Inhibition) PI3K-δ 0.1 μM. How it is done:
<Experimental Example 1> Evaluation of Inhibitory Activity Properties Against PI3K-δ
The following experiments were performed to verify the inhibitory activity against PI3K-δ with regard to each of the compounds of Examples 1 to 441 according to the present invention.
PI3K(p1108/p857) (h) was incubated in assay buffer comprising 10 μM phosphatidylinositol-4,5-bisphosphate and Mg/ATP (at a concentration as required). The reaction was initiated by the addition of a Mg/ATP mixture, and after incubation for 30 minutes at room temperature, a stop solution comprising EDTA and phosphatidylinositol-3,4,5-triphosphate was added to stop the reaction and carry out biotinylation.
A detection buffer comprising Eu (europium)-labelled anti-GST monoclonal antibody, GST-tagged GRP1 PH domain and streptavidin-allophycocyanin was added. A plate was read in a time-resolved fluorescence mode and a homogeneous time-resolved fluorescence (HTRF) signal was determined according to HTRF=10000×(Em 665 nm/Em 620 nm).
In general terms: In TR-FRET formats the signal depends on donor and acceptor labels being close together.

The target in a further experiment is DNA-PK(h) (Homo sapiens, UniProt P78527). Description: Evaluation of inhibitory activity against DNA-PK (HTRF kinase assay, GST-cMyc-p53 substrate). The class given is biochemical. The settings on record: for inhibition at 0.01 µM: compound concentration 0.01 μM, read-out: EXP_VALUE(% Inhibition) DNA-PK(h) 0.01 μM; for inhibition at 0.1 µM: compound concentration 0.1 μM, read-out: EXP_VALUE(% Inhibition) DNA-PK(h) 0.1 μM. How it is done:
<Experimental Example 2> Evaluation of Inhibitory Activity Properties Against DNA-PK
The following experiments were performed to verify the inhibitory activity against DNA-PK with regard to each of the compounds of Examples 1 to 441 according to the present invention.
DNA-PK(h) was subjected to an isothermal treatment in an assay buffer comprising […] GST-cMyc-p53 and Mg/ATP (at a concentration as required). The reaction was initiated by the addition of a Mg/ATP mixture, and after incubation for 30 minutes at room temperature, a stop solution comprising EDTA was added to stop the reaction. A detection buffer comprising d2-labelled anti-GST monoclonal antibody and Europium-labelled anti-phospho Ser15 antibody for phosphorylated p53 was added. A plate was read in a time-resolved fluorescence mode and a homogeneous time-resolved fluorescence (HTRF) signal was determined according to HTRF=10000×(Em 665 nm/Em 620 nm).

Chain of PI3K-δ (PI3K(p1108/p857) (h)) (O00329 whole entry): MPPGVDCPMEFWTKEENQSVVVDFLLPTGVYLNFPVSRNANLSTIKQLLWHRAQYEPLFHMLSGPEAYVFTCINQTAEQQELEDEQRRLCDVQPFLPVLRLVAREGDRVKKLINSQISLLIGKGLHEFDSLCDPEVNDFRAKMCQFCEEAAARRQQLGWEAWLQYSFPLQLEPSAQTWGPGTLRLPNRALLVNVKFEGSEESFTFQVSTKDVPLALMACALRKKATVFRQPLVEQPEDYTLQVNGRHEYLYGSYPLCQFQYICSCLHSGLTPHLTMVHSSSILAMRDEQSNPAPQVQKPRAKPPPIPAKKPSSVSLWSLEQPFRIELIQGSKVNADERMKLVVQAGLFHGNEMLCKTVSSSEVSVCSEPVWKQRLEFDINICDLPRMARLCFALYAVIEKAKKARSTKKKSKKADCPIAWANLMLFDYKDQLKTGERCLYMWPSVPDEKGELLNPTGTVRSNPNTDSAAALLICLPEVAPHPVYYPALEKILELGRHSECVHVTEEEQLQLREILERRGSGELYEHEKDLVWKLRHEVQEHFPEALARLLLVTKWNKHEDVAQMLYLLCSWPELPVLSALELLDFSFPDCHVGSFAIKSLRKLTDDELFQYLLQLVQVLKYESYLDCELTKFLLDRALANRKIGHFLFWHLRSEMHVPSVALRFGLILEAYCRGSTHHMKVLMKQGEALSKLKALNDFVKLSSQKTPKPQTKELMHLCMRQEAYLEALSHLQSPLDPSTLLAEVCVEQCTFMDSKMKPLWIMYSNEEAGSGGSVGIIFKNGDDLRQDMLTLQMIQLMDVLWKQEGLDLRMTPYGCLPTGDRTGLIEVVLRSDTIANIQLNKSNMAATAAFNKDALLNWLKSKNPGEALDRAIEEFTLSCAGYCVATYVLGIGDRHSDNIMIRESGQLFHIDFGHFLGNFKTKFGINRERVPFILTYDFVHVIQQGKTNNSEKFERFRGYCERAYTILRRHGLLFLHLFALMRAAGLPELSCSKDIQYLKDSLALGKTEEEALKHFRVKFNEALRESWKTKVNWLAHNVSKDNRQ
Chain of PI3K-δ (PI3K(p1108/p857) (h)) (P27986 whole entry partner): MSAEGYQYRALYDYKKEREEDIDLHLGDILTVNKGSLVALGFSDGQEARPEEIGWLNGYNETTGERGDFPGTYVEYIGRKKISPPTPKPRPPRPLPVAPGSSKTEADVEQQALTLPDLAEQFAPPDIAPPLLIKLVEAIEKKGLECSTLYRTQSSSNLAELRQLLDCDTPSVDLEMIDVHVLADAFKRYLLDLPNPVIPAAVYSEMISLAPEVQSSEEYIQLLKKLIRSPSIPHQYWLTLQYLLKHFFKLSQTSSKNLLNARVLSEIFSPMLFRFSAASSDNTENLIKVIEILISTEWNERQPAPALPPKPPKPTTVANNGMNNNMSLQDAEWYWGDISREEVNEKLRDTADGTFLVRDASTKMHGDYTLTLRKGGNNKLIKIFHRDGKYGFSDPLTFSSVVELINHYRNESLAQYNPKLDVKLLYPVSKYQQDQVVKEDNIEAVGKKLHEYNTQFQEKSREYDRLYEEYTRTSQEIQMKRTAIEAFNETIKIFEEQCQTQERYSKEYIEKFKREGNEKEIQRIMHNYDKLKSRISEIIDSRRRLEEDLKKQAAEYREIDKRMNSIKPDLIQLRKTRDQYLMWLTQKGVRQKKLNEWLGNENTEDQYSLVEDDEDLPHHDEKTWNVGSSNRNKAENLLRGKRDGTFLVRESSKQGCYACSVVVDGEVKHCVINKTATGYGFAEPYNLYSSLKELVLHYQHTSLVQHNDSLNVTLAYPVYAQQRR

Regarding `C[C@H](Nc1ncnc2[nH]ccc(=O)c12)c1c(Br)c2cccc(-c3ccc(N(C)C)cc3)c2c(=O)n1-c1ccccc1` [Example 16, (S)-4-((1-(4-bromo-8-(4-(dimethylamino)phenyl)-1-oxo-2-phenyl-1,2-dihydroisoquinolin-3-yl)ethyl)amino)pyrido[2,3-d]pyrimidin-5(8H)-one], in experiment [1], the inhibition at 0.01 µM came out at 51% and the inhibition at 0.1 µM was 88%. At DNA-PK(h), the inhibition at 0.01 µM came out at 7% and the inhibition at 0.1 µM was determined as 53%.
For `Cc1ccc(-c2cccc3c(Br)c([C@H](C)Nc4ncnc5[nH]ccc(=O)c45)n(-c4ccccc4)c(=O)c23)cn1` [Example 17, (S)-4-((1-(4-bromo-8-(6-methylpyridin-3-yl)-1-oxo-2-phenyl-1,2-dihydroisoquinolin-3-yl)ethyl)amino)pyrido[2,3-d]pyrimidin-5(8H)-one], in experiment [1], the inhibition at 0.01 µM came out at 99% and the inhibition at 0.1 µM stood at 97%. Also, on DNA-PK(h), the inhibition at 0.01 µM worked out at 70% and the inhibition at 0.1 µM is 94%.
As to `C[C@H](Nc1ncnc2[nH]ccc(=O)c12)c1c(Br)c2cccc(-c3ccc(F)cc3)c2c(=O)n1-c1ccccc1` [Example 18, (S)-4-((1-(4-bromo-8-(4-fluorophenyl)-1-oxo-2-phenyl-1,2-dihydroisoquinolin-3-yl)ethyl)amino)pyrido[2,3-d]pyrimidin-5(8H)-one], the inhibition at 0.01 µM worked out at 80% in experiment [1] and 75% on DNA-PK(h). The inhibition at 0.1 µM was 96% in experiment [1] and 98% at DNA-PK(h).
For the compound `C[C@H](Nc1ncnc2[nH]ccc(=O)c12)c1c(Br)c2cccc(-c3cnn(C)c3)c2c(=O)n1-c1ccccc1` [Example 19, (S)-4-((1-(4-bromo-8-(1-methyl-1H-pyrazol-4-yl)-1-oxo-2-phenyl-1,2-dihydroisoquinolin-3-yl)ethyl)amino)pyrido[2,3-d]pyrimidin-5(8H)-one], in experiment [1], the inhibition at 0.01 µM amounted to 89% and the inhibition at 0.1 µM was found to be 102%. At DNA-PK(h), the inhibition at 0.01 µM came to 78% and the inhibition at 0.1 µM was 98%.
The corresponding values for `C[C@H](Nc1ncnc2[nH]ccc(=O)c12)c1cc2cccc(-c3ccc(N(C)C)cc3)c2c(=O)n1-c1ccccc1` [Example 20, (S)-4-((1-(8-(4-(dimethylamino)phenyl)-1-oxo-2-phenyl-1,2-dihydroisoquinolin-3-yl)ethyl)amino)pyrido[2,3-d]pyrimidin-5(8H)-one] are 67%, 95%, 3% and 55%.
As for `C[C@H](Nc1ncnc2[nH]ccc(=O)c12)c1c(Cl)c2cccc(-c3ccc4[nH]c(=O)[nH]c4c3)c2c(=O)n1-c1ccccc1` [Example 21, (S)-4-((1-(4-chloro-1-oxo-8-(2-oxo-2,3-dihydro-1H-benzo[d]imidazol-5-yl)-2-phenyl-1,2-dihydroisoquinolin-3-yl)ethyl)amino)pyrido[2,3-d]pyrimidin-5(8H)-one], in experiment [1], the inhibition at 0.01 µM was 90% and the inhibition at 0.1 µM was 99%. On DNA-PK(h), the inhibition at 0.01 µM turned out to be 69% and the inhibition at 0.1 µM is 95%.
As for `Cc1nc2ccc(-c3cccc4c(Cl)c([C@H](C)Nc5ncnc6[nH]ccc(=O)c56)n(-c5ccccc5)c(=O)c34)cc2o1` [Example 22, (S)-4-((1-(4-chloro-8-(2-methylbenzo[d]oxazol-6-yl)-1-oxo-2-phenyl-1,2-dihydroisoquinolin-3-yl)ethyl)amino)pyrido[2,3-d]pyrimidin-5(8H)-one], in experiment [1], the inhibition at 0.01 µM came out at 89% and the inhibition at 0.1 µM turned out to be 93%. In addition, at DNA-PK(h), the inhibition at 0.01 µM is 69% and the inhibition at 0.1 µM worked out at 97%.
In the case of `C[C@H](Nc1ncnc2[nH]ccc(=O)c12)c1cc2cccc(-c3ccc(C#N)cc3)c2c(=O)n1-c1ccccc1` [Example 23, (S)-4-(1-oxo-3-(1-((5-oxo-5,8-dihydropyrido[2,3-d]pyrimidin-4-yl)amino)ethyl)-2-phenyl-1,2-dihydroisoquinolin-8-yl)benzonitrile], in experiment [1], the inhibition at 0.01 µM was found to be 82% and the inhibition at 0.1 µM came to 96%. In addition, on DNA-PK(h), the inhibition at 0.01 µM turned out to be 38% and the inhibition at 0.1 µM was found to be 85%.
As to `C[C@H](Nc1ncnc2[nH]ccc(=O)c12)c1c(Cl)c2cccc(-c3ccc4cnoc4c3)c2c(=O)n1-c1ccccc1` [Example 24, (S)-4-((1-(8-(benzo[d]isoxazol-6-yl)-4-chloro-1-oxo-2-phenyl-1,2-dihydroisoquinolin-3-yl)ethyl)amino)pyrido[2,3-d]pyrimidin-5(8H)-one], the values for the inhibition at 0.01 µM (in experiment [1]; on DNA-PK(h)) were 61% and 85%, respectively.
On to `C[C@H](Nc1ncnc2[nH]ccc(=O)c12)c1c(Cl)c2cccc(-c3cnc4[nH]ccc4c3)c2c(=O)n1-c1ccccc1` [Example 25, (S)-4-((1-(4-chloro-1-oxo-2-phenyl-8-(1H-pyrrolo[2,3-b]pyridin-5-yl)-1,2-dihydroisoquinolin-3-yl)ethyl)amino)pyrido[2,3-d]pyrimidin-5(8H)-one], for which the inhibition at 0.01 µM in experiment [1] came to 6%; on DNA-PK(h), 7%.
Regarding `C[C@H](Nc1ncnc2[nH]ccc(=O)c12)c1c(Cl)c2cccc(-c3cnc(C(C)(C)O)nc3)c2c(=O)n1-c1ccccc1` [Example 26, (S)-4-((1-(4-chloro-8-(2-(2-hydroxypropan-2-yl)pyrimidin-5-yl)-1-oxo-2-phenyl-1,2-dihydroisoquinolin-3-yl)ethyl)amino)pyrido[2,3-d]pyrimidin-5(8H)-one], the inhibition at 0.01 µM in experiment [1] worked out at 92%; on DNA-PK(h), 66%.
`C[C@H](Nc1ncnc2[nH]ccc(=O)c12)c1c(Cl)c2cccc(-c3cc4[nH]ncc4cn3)c2c(=O)n1-c1ccccc1` [Example 27, (S)-4-((1-(4-chloro-1-oxo-2-phenyl-8-(1H-pyrazolo[4,3-c]pyridin-6-yl)-1,2-dihydroisoquinolin-3-yl)ethyl)amino)pyrido[2,3-d]pyrimidin-5(8H)-one]: the values for the inhibition at 0.01 µM (in experiment [1]; on DNA-PK(h)) were 76% and 34%, respectively.
Taken in the same sequence, the figures for `COc1ncc(-c2cccc3c(Cl)c([C@H](C)Nc4ncnc5[nH]ccc(=O)c45)n(-c4ccccc4)c(=O)c23)nc1OC` [Example 28, (S)-4-((1-(4-chloro-8-(5,6-dimethoxypyrazin-2-yl)-1-oxo-2-phenyl-1,2-dihydroisoquinolin-3-yl)ethyl)amino)pyrido[2,3-d]pyrimidin-5(8H)-one] were 69% and 61%.
The corresponding values for `C[C@H](Nc1ncnc2[nH]ccc(=O)c12)c1c(Cl)c2cccc(-c3ccc(-c4nccs4)cc3)c2c(=O)n1-c1ccccc1` [Example 29, (S)-4-((1-(4-chloro-1-oxo-2-phenyl-8-(4-(thiazol-2-yl)phenyl)-1,2-dihydroisoquinolin-3-yl)ethyl)amino)pyrido[2,3-d]pyrimidin-5(8H)-one] are 70% and 99%.
With `COc1cnc(-c2cccc3c(Cl)c([C@H](C)Nc4ncnc5[nH]ccc(=O)c45)n(-c4ccccc4)c(=O)c23)nc1` [Example 30, (S)-4-((1-(4-chloro-8-(5-methoxypyrimidin-2-yl)-1-oxo-2-phenyl-1,2-dihydroisoquinolin-3-yl)ethyl)amino)pyrido[2,3-d]pyrimidin-5(8H)-one], the values for the inhibition at 0.01 µM (in experiment [1]; on DNA-PK(h)) were 12% and 101%, respectively.

As a reminder, the inhibition is the relative decrease from the control value, in per cent.
